Test results: patent US6156700A, “3-(1,2-Benzisothiazol- and isoxazol-5-yl)-2,4(1H,3H)-pyrimidinedione or thione and 3-(1,2-benzisothiazol- and isoxazol-5-yl)-4(3H)-pyrimidinone or thione herbicidal agents” (American Cyanmid Company, priority 1998, dated 2000)
“And” between values parts separate entries of the source, which are not always exact repeats. Identical values can stand only once.

Assays:
Format in all cases: in vivo
GLXMAW [1] = test: Postemergence herbicidal evaluation
GLXMAW [2] = test: Preemergence herbicidal evaluation; design: scale not given here; settings: 0.1250 kg/ha
IPOHE [3] = test: Postemergence herbicidal evaluation; settings: 0.0625-0.0640 kg/ha
AMBEL = test: Postemergence herbicidal evaluation
CASOB = test: Postemergence herbicidal evaluation
IPOHE [4] = test: Preemergence herbicidal evaluation; settings: 0.1250 kg/ha

For `Cc1nsc2ccc(-n3c(=O)cc(C(F)(F)F)n(C)c3=O)cc12` [Compound 6, 1-Methyl-3-(3-methyl-1,2-benzisothiazol-5-yl)-6-(trifluoromethyl)-2,4(1H,3H)-pyrimidinedione], the herbicidal effect rating (GLXMAW [1]; 0.0157-0.0160 kg/ha) was 5.5 and 3.0, the herbicidal effect rating (GLXMAW [1]; 0.0313-0.0320 kg/ha) was 5.5 and 3.8 and 7.0 and the herbicidal effect rating (GLXMAW [1]; 0.0625-0.0640 kg/ha) was 6.0 and 4.8 and 7.0. The herbicidal effect rating (GLXMAW [1]; 0.1250 kg/ha) was 7.0, the herbicidal effect rating (GLXMAW [1]; 0.2500 kg/ha) was 7.0 and the herbicidal effect rating (GLXMAW [2]) was 0.0. For the same molecule, the herbicidal effect rating (IPOHE [3]) was 9.0 and 5.0, the herbicidal effect rating (AMBEL; 0.0313-0.0320 kg/ha) was 9.0 and 6.0 and 8.0 and the herbicidal effect rating (AMBEL; 0.0625-0.0640 kg/ha) was 9.0 and 6.5. It also gave a herbicidal effect rating (AMBEL; 0.1250 kg/ha) of 9.0, a herbicidal effect rating (AMBEL; 0.2500 kg/ha) of 9.0 and a herbicidal effect rating (AMBEL; 0.5000 kg/ha) of 9.0. The herbicidal effect rating (CASOB; 0.0157-0.0160 kg/ha) was 0.0, the herbicidal effect rating (CASOB; 0.0625-0.0640 kg/ha) was 2.5 and 4.0 and the herbicidal effect rating (CASOB; 0.1250 kg/ha) was 7.0. The herbicidal effect rating (CASOB; 0.2500 kg/ha) was 8.0, the herbicidal effect rating (CASOB; 0.5000 kg/ha) was 7.0 and the herbicidal effect rating (IPOHE [4]) was 3.0.
With `Cn1c(C(F)(F)F)cc(=O)n(-c2ccc3snc(-c4ccccc4)c3c2)c1=O` [Compound 4, 1-Methyl-3-(3-phenyl-1,2-benzisothiazol-5-yl)-6-(trifluoromethyl)-2,4(1H,3H)-pyrimidinedione] the herbicidal effect rating (AMBEL; 0.0157-0.0160 kg/ha) was 9.0, the herbicidal effect rating (AMBEL; 0.0313-0.0320 kg/ha) was 7.0 and the herbicidal effect rating (AMBEL; 0.0625-0.0640 kg/ha) was 9.0. For the same molecule, the herbicidal effect rating (AMBEL; 0.1250 kg/ha) was 9.0, the herbicidal effect rating (AMBEL; 0.2500 kg/ha) was 9.0 and the herbicidal effect rating (AMBEL; 0.5000 kg/ha) was 9.0. For the same molecule, the herbicidal effect rating (CASOB; 0.0157-0.0160 kg/ha) was 7.0, the herbicidal effect rating (CASOB; 0.0313-0.0320 kg/ha) was 7.0 and the herbicidal effect rating (CASOB; 0.0625-0.0640 kg/ha) was 9.0. For the same molecule, the herbicidal effect rating (CASOB; 0.1250 kg/ha) was 9.0, the herbicidal effect rating (CASOB; 0.2500 kg/ha) was 9.0 and the herbicidal effect rating (CASOB; 0.5000 kg/ha) was 9.0.
